Results reported in patent US8440708B2, “Triazole-substituted arylamides as P2X3 and P2X2/3 antagonists” (Roche Palo Alto LLC, priority 2007, dated 2013).

Columns and labels:
rat P2X3 receptor = target: T1, rat P2X3 receptor (Rattus norvegicus, UniProt P49654); assay: P2X3/P2X2/3 FLIPR (Fluorometric Imaging Plate Reader) Assay, P2X3; assay type: cell-based; conditions: CHO-K1 cells transfected with rat P2X3; agonist α,β-meATP 1 μM; Table 1; read-out: P2X3 pKi (converted)
T1 construct: expressed in transfected cells; host or cells: CHO-K1
T1 sequence (P49654 1-397): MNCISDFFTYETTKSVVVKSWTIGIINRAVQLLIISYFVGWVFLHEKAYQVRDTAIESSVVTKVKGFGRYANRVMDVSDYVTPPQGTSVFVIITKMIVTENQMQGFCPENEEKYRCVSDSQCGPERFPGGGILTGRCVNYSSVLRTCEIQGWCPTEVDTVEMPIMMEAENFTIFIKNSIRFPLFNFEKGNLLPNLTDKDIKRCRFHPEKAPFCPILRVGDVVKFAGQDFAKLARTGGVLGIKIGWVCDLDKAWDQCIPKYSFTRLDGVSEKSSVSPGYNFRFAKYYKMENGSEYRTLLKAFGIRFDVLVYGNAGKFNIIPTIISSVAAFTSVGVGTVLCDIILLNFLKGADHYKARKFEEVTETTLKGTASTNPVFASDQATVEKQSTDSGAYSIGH
Method in brief: (§1)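 CHO-K1 cells expressing rat P2X3 or human P2X2/3 were loaded with Fluo-3 AM (2 μM, 1 h, 37 °C) and preincubated with compound for 20 min at room temperature. Calcium influx was evoked by α,β-meATP (1 μM for P2X3, 5 μM for P2X2/3) and peak fluorescence was fitted by nonlinear regression to inhibition curves.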

human P2X2/3 receptor = target: T2, human P2X2/3 receptor (Homo sapiens, UniProt P56373+Q9UBL9); assay: P2X3/P2X2/3 FLIPR (Fluorometric Imaging Plate Reader) Assay, P2X2/3; assay type: cell-based; conditions: CHO-K1 cells transfected with human P2X2/3; agonist α,β-meATP 5 μM; Table 1; read-out: P2X2/3 pKi (converted)
T2 construct: expressed in transfected cells; host or cells: CHO-K1
T2 sequence (Q9UBL9 1-471): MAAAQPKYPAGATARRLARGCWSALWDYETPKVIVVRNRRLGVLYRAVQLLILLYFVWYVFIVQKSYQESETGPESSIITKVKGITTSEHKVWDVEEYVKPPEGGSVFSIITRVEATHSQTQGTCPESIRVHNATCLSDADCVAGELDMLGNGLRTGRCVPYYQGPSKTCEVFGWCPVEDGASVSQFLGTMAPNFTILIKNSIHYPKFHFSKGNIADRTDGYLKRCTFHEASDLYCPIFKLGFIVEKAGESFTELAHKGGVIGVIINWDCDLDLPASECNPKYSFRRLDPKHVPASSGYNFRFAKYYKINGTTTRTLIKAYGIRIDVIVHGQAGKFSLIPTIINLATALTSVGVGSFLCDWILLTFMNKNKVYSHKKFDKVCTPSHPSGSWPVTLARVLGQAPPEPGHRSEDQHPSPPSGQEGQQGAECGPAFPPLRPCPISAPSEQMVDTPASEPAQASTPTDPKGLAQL
T2 sequence (P56373 1-397): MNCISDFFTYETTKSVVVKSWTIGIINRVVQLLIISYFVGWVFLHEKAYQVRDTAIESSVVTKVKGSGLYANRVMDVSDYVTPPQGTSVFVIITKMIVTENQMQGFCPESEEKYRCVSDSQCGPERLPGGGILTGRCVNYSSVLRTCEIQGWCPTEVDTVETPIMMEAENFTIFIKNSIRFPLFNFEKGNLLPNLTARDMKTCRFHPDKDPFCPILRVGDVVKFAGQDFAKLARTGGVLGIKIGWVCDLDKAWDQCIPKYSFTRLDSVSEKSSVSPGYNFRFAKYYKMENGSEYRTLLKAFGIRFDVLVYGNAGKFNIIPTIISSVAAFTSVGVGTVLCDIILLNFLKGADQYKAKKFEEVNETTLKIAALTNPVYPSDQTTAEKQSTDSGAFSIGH
Method in brief: as §1

Row | Ki (rat P2X3 receptor) [nM] | Ki (human P2X2/3 receptor) [nM] | SMILES
1 | 263 | 10000 | Cc1ccc(-c2cc(C(=O)N[C@@H](C)CO)cc(-n3ncnc3C)c2)nc1 [Compound 102, N-((S)-2-Hydroxy-1-methyl-ethyl)-3-(5-methyl-pyridin-2-yl)-5-(5-methyl-[1,2,4]triazol-1-yl)-benzamide]
2 | 724 | 10000 | Cc1ccc(-c2cc(C(=O)NC(C)CN(C)C)cc(-n3ncnc3C(C)N(C)C)c2)cc1 (stereo not shown) [Compound 103, 5-[5-(1-Dimethylamino-ethyl)-[1,2,4]triazol-1-yl]-4′-methyl-biphenyl-3-carboxylic acid (2-dimethylamino-1-methyl-ethyl)-amide]
3 | 7.76 | 407 | Cc1ccc(-c2cc(C(=O)NC3CC3)cc(-n3ncnc3C(C)N(C)C)c2)cc1 (stereo not shown) [Compound 104, 5-[5-(1-Dimethylamino-ethyl)-[1,2,4]triazol-1-yl]-4′-methyl-biphenyl-3-carboxylic acid cyclopropylamide]
4 | 5.25 | 646 | Cc1ccc(-c2cc(C(=O)N[C@@H](C)CO)cc(-n3ncnc3C(C)N(C)C)c2)cc1 (stereo partly drawn) [Compound 105, 5-[5-(1-Dimethylamino-ethyl)-[1,2,4]triazol-1-yl]-4′-methyl-biphenyl-3-carboxylic acid ((S)-2-hydroxy-1-methyl-ethyl)-amide]
5 | 19.1 | 759 | CCc1ncnn1-c1cc(C(=O)NC(C)c2cnccn2)cc(-c2ccc(Cl)cn2)c1 (stereo not shown) [Compound 106, 3-(5-Chloro-pyridin-2-yl)-5-(5-ethyl-[1,2,4]triazol-1-yl)-N-(1-pyrazin-2-yl-ethyl)-benzamide]
6 | 148 | 10000 | CCc1ncnn1-c1cc(C(=O)N[C@@H](C)CO)cc(-c2ccc(Cl)cn2)c1 [Compound 107, 3-(5-Chloro-pyridin-2-yl)-5-(5-ethyl-[1,2,4]triazol-1-yl)-N-((S)-2-hydroxy-1-methyl-ethyl)-benzamide]
7 | 97.7 | 4270 | CCc1ncnn1-c1cc(C(=O)NC2CC2)cc(-c2ccc(Cl)cn2)c1 [Compound 108, 3-(5-Chloro-pyridin-2-yl)-N-cyclopropyl-5-(5-ethyl-[1,2,4]triazol-1-yl)-benzamide]
8 | 5.5 | 372 | CCCc1ncnn1-c1cc(C(=O)NCc2cnc(C)cn2)cc(-c2ccc(Cl)cn2)c1 [Compound 109, 3-(5-Chloro-pyridin-2-yl)-N-(5-methyl-pyrazin-2-ylmethyl)-5-(5-propyl-[1,2,4]triazol-1-yl)-benzamide]
9 | 7.24 | 355 | CCCc1ncnn1-c1cc(C(=O)NC(C)c2cnccn2)cc(-c2ccc(Cl)cn2)c1 (stereo not shown) [Compound 110, 3-(5-Chloro-pyridin-2-yl)-5-(5-propyl-[1,2,4]triazol-1-yl)-N-(1-pyrazin-2-yl-ethyl)-benzamide]
10 | 18.2 | 4900 | CCCc1ncnn1-c1cc(C(=O)N[C@@H](C)CO)cc(-c2ccc(Cl)cn2)c1 [Compound 111, 3-(5-Chloro-pyridin-2-yl)-N-((S)-2-hydroxy-1-methyl-ethyl)-5-(5-propyl-[1,2,4]triazol-1-yl)-benzamide]
11 | 10.2 | 1860 | CCCc1ncnn1-c1cc(C(=O)NC2CC2)cc(-c2ccc(Cl)cn2)c1 [Compound 112, 3-(5-Chloro-pyridin-2-yl)-N-cyclopropyl-5-(5-propyl-[1,2,4]triazol-1-yl)-benzamide]
12 | 4.57 | 1580 | CCCc1ncnn1-c1cc(C(=O)NC2CC2)cc(-c2ccc(C)cn2)c1 [Compound 113, N-Cyclopropyl-3-(5-methyl-pyridin-2-yl)-5-(5-propyl-[1,2,4]triazol-1-yl)-benzamide]
13 | 4.79 | 2880 | CCCc1ncnn1-c1cc(C(=O)N[C@@H](C)CO)cc(-c2ccc(C)cn2)c1 [Compound 114, N-((S)-2-Hydroxy-1-methyl-ethyl)-3-(5-methyl-pyridin-2-yl)-5-(5-propyl-[1,2,4]triazol-1-yl)-benzamide]
14 | 3.31 | 79.4 | CCCc1ncnn1-c1cc(C(=O)NC(C)c2cnccn2)cc(-c2ccc(C)cn2)c1 (stereo not shown) [Compound 115, 3-(5-Methyl-pyridin-2-yl)-5-(5-propyl-[1,2,4]triazol-1-yl)-N-(1-pyrazin-2-yl-ethyl)-benzamide]
15 | 2.51 | 85.1 | CCCc1ncnn1-c1cc(C(=O)NCc2cnc(C)cn2)cc(-c2ccc(C)cn2)c1 [Compound 116, N-(5-Methyl-pyrazin-2-ylmethyl)-3-(5-methyl-pyridin-2-yl)-5-(5-propyl-[1,2,4]triazol-1-yl)-benzamide]
16 | 11.5 | 398 | Cc1ccc(-c2cc(C(=O)NCc3cnc(C)cn3)cc(-c3ncn(C(C)C)n3)c2)cc1 [Compound 117, 5-(1-Isopropyl-1H-[1,2,4]triazol-3-yl)-4′-methyl-biphenyl-3-carboxylic acid (5-methyl-pyrazin-2-ylmethyl)-amide]
17 | 4.27 | 35.5 | Cc1ccc(-c2cc(C(=O)NC(C)c3cnccn3)cc(-n3ncnc3CC(C)C)c2)nc1 (stereo not shown) [Compound 118, 3-(5-Isobutyl-[1,2,4]triazol-1-yl)-5-(5-methyl-pyridin-2-yl)-N-(1-pyrazin-2-yl-ethyl)-benzamide]
18 | 3.55 | 23.4 | Cc1ccc(-c2cc(C(=O)NCc3cnc(C)cn3)cc(-n3ncnc3CC(C)C)c2)nc1 [Compound 119, 3-(5-Isobutyl-[1,2,4]triazol-1-yl)-N-(5-methyl-pyrazin-2-ylmethyl)-5-(5-methyl-pyridin-2-yl)-benzamide]
19 | 7.59 | 132 | CC(C)c1ncnn1-c1cc(C(=O)NC(C)c2cnccn2)cc(-c2ccc(Cl)cn2)c1 (stereo not shown) [Compound 120, 3-(5-Chloro-pyridin-2-yl)-5-(5-isopropyl-[1,2,4]triazol-1-yl)-N-(1-pyrazin-2-yl-ethyl)-benzamide]
20 | 5.89 | 107 | Cc1cnc(CNC(=O)c2cc(-c3ccc(Cl)cn3)cc(-n3ncnc3C(C)C)c2)cn1 [Compound 121, 3-(5-Chloro-pyridin-2-yl)-5-(5-isopropyl-[1,2,4]triazol-1-yl)-N-(5-methyl-pyrazin-2-ylmethyl)-benzamide]
21 | 19.1 | 1290 | CC(C)c1ncnn1-c1cc(C(=O)N[C@@H](C)CO)cc(-c2ccc(Cl)cn2)c1 [Compound 122, 3-(5-Chloro-pyridin-2-yl)-N-((S)-2-hydroxy-1-methyl-ethyl)-5-(5-isopropyl-[1,2,4]triazol-1-yl)-benzamide]
22 | 11 | 871 | CC(C)c1ncnn1-c1cc(C(=O)NC2CC2)cc(-c2ccc(Cl)cn2)c1 [Compound 123, 3-(5-Chloro-pyridin-2-yl)-N-cyclopropyl-5-(5-isopropyl-[1,2,4]triazol-1-yl)-benzamide]
23 | 13.5 | 1150 | CCc1ncnn1-c1cc(C(=O)NCc2cnc(C)cn2)cc(-c2ccc(Cl)cn2)c1 [Compound 124, 3-(5-Chloro-pyridin-2-yl)-5-(5-ethyl-[1,2,4]triazol-1-yl)-N-(5-methyl-pyrazin-2-ylmethyl)-benzamide]
24 | 19.1 | 245 | Cc1ccc(-c2cc(C(=O)NCc3cnc(C)cn3)cc(-n3ncnc3C3CC3)c2)nc1 [Compound 125, 3-(5-Cyclopropyl-[1,2,4]triazol-1-yl)-N-(5-methyl-pyrazin-2-ylmethyl)-5-(5-methyl-pyridin-2-yl)-benzamide]
25 | 29.5 | 3720 | CCc1ncnn1-c1cc(C(=O)NC2CC2)cc(-c2ccc(C)cn2)c1 [Compound 126, N-Cyclopropyl-3-(5-ethyl-[1,2,4]triazol-1-yl)-5-(5-methyl-pyridin-2-yl)-benzamide]
26 | 24.5 | 6920 | CCc1ncnn1-c1cc(C(=O)N[C@@H](C)CO)cc(-c2ccc(C)cn2)c1 [Compound 127, 3-(5-Ethyl-[1,2,4]triazol-1-yl)-N-((S)-2-hydroxy-1-methyl-ethyl)-5-(5-methyl-pyridin-2-yl)-benzamide]
